These are literature values, as cited in EP2077109A1, “AMIDE COMPOUND, SALT THEREOF, AND BIOFILM REMOVER USING THEM” (The University of Tokyo, priority 2006, dated 2008).

The test system of the data set is autoinducer. The settings on record: statement taken from Patent Document 1 (JP 2006-512290).

For `CCCCCCCCCC(=O)CC(=O)NN1CCCCC1`, the autoinducer agonist activity entry is “exhibits autoinducer agonist activity”.
